Measured values from patent publication US20230183216A1, “PYRIDIZIN-3(2H)-ONE DERIVATIVES” (Gilead Sciences, Inc., priority 2021, published 2023).

Key:
PARP7 = target: T1, PARP7 (Homo sapiens, UniProt Q7Z3E1); assay: biochemical;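 further: MSD light signal quantifying PARP7 captured by a plate-immobilized probe, read after 1.5 h equilibration plus 1.5 h with SULFO-TAG anti-GST antibody at room temperature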
T1 sequence (Q7Z3E1 1-657): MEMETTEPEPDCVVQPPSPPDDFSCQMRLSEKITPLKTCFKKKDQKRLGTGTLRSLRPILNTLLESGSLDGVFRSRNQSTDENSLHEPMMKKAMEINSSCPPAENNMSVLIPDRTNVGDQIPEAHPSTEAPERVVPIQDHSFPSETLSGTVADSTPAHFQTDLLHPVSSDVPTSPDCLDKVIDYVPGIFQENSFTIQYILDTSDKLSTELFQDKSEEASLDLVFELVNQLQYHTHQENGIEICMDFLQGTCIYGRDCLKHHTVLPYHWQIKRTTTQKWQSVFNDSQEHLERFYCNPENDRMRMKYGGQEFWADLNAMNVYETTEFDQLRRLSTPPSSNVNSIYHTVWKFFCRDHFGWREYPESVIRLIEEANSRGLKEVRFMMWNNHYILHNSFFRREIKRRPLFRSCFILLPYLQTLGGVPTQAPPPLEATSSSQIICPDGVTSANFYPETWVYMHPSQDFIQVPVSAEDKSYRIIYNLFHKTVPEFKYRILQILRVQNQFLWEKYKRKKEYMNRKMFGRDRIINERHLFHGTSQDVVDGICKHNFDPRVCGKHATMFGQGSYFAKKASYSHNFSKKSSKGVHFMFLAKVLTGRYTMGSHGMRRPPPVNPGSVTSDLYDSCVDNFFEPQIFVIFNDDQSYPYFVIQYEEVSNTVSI
Protocol: Probe Displacement Assay for PARP7 Displacement of a biotinylated probe (RBN011147; Wigle et al., Cell Chemical Biology, 2020, pp. 877-887) from the PARP7 NAD+-binding site was measured in vitro using a Mesoscale Discovery electrochemiluminescent assay. […] Next, 10 μl of 10 nM PARP7 protein incubated for 1 hour at room temperature with a dose response curve of each test compound in a Greiner LDV polypropylene plate (#781201) is added to the MSD plate containing the immobilized probe. The interaction is allowed to reach equilibrium for 1.5 hours, and then 10 ul of SULFO-TAG labeled anti-GST antibody (Cat #R32AA-1) is added to each well and allowed to incubate for an additional 1.5 hours at room temperature. Finally, 10 μl of MSD read buffer T (4×, Cat. #R92C-1) is added to each well using a Bravo liquid handler to prevent air bubbles in the wells, and the plates are subsequently read in an MSD instrument. Light intensity is then measured to quantify the amount of PARP7 bound to the immobilized probe on the plate.

[1] = tested on: STAT1 (phosphorylated at Tyr701) in NCI-H1373 cells; assay: Phospho-STAT1 (Tyr701) LANCE Ultra TR-FRET Detection Assay; type: cell-based; conditions: Homo sapiens, 48 hours, induction of pSTAT1, normalized to 10 uM positive control and DMSO, 4-parameter fit, read-out: NH1373 pSTAT1 EC50
Protocol: Phospho-STAT1 (Tyr701 LANCE Ultra TR-FRET Detection Assay
LANCE Ultra phospho-STAT1 (Tyr701) kits available from Perkin Elmer are designed for the detection of phosphorylated STAT1 in cell lysates using a simple, homogeneous LANCE Ultra sandwich assay (Cat. #TRF4028M). This assay is intended for assessing compound induction of endogenous levels of cellular STAT1 (phosphorylated at Tyr701) in NCI-H1373 cells. The NCI-H1373 cells are cultured in RPMI 1640 media containing 10% heat inactivated FBS, GlutaMAX, 1% Penicillin-Streptomycin. An Echo acoustic liquid handler is used to transfer 60 nanoliters of compound dilutions using the Echo Qualified, 384-well polypropylene microplate clear flat bottom source plates into a Greiner (#781080) cell culture microplate. NCI-H1373 cells are seeded into these compound-spotted culture plates at 30,000 cells/well in a 60 uL volume in growth media. The plates are incubated in a 5% CO2 humidified incubator at 37° C. for 48 hours. […] Briefly, 20 μL of supplemented lysis buffer is added to each well and allowed to shake for 1 hour at 400 rpm. Next, 5 ul of remixed antibody solutions (vol/vol) prepared in detection buffer are added to each well and allowed to incubate at room temperature overnight. After spinning the plate down at 300 rpm for […], the plate is read on an EnVision plate reader set up for Eu3+ Cryptate and fluorescence emission is measured at two different wavelengths (665 nm and 620 nm).

| Compound | IC50 (PARP7) [nM] | EC50 [1] [nM] |
| --- | --- | --- |
| O=C(CCCc1cc(C(F)(F)F)c(=O)[nH]n1)N1CCN(c2ncc(C(F)(F)F)cn2)CC1 [Example 11, 6-(4-oxo-4-(4-(5-(trifluoromethyl)pyrimidin-2-yl)piperazin-1-yl)butyl)-4-(trifluoromethyl)pyridazin-3(2H)-one] | 4.67 | 1500 |
| O=C(C[C@H]1CCCCN1c1cc(C(F)(F)F)c(=O)[nH]n1)N1CCN(c2ncc(C(F)(F)F)cn2)CC1 [Example 34, (R)-6-(2-(2-oxo-2-(4-(5-(trifluoromethyl)pyrimidin-2-yl)piperazin-1-yl)ethyl)piperidin-1-yl)-4-(trifluoromethyl)pyridazin-3(2H)-one] | 4.46 | 1690 |
| O=C(C[C@@H]1CCN(c2cc(C(F)(F)F)c(=O)[nH]n2)C1)N1CCN(c2ncc(C(F)(F)F)cn2)CC1 [Example 67, 3-[(3S)-3-[2-oxo-2-[4-[5-(trifluoromethyl)pyrimidin-2-yl]piperazin-1-yl]ethyl]pyrrolidin-1-yl]-5-(trifluoromethyl)-1H-pyridazin-6-one] | 0.848 | 2270 |
| O=C([C@H](O)CCNc1cc(C(F)(F)F)c(=O)[nH]n1)N1CCN(c2ncc(C(F)(F)F)cn2)CC1 [Example 26, (R)-6-((3-hydroxy-4-oxo-4-(4-(5-(trifluoromethyl)pyrimidin-2-yl)piperazin-1-yl)butyl)amino)-4-(trifluoromethyl)pyridazin-3(2H)-one] | 1.6 | 901 |
| O=C([C@@H]1Cc2ccccc2CN1c1cc(C(F)(F)F)c(=O)[nH]n1)N1CCN(c2ncc(C(F)(F)F)cn2)CC1 [Example 57, 5-(trifluoromethyl)-3-[(3S)-3-[4-[5-(trifluoromethyl)pyrimidin-2-yl]piperazine-1-carbonyl]-3,4-dihydro-1H-isoquinolin-2-yl]-1H-pyridazin-6-one] | 4.37 | 1710 |
| O=C(OCCCc1cc(C(F)(F)F)c(=O)[nH]n1)N1CCN(c2ncc(C(F)(F)F)cn2)CC1 [Example 13, 3-(6-oxo-5-(trifluoromethyl)-1,6-dihydropyridazin-3-yl)propyl 4-(5-(trifluoromethyl)pyrimidin-2-yl)piperazine-1-carboxylate] | 1.33 | 1160 |
| O=C([C@@H]1CCCCN1c1cc(C(F)(F)F)c(=O)[nH]n1)N1CCN(c2ncc(C(F)(F)F)cn2)CC1 [Example 28, (S)-4-(trifluoromethyl)-6-(2-(4-(5-(trifluoromethyl)pyrimidin-2-yl)piperazine-1-carbonyl)piperidin-1-yl)pyridazin-3(2H)-one] | 0.879 | 264 |
| O=C([C@@H]1CCc2ccccc2N1c1cc(C(F)(F)F)c(=O)[nH]n1)N1CCN(c2ncc(C(F)(F)F)cn2)CC1 [Example 58, 5-(trifluoromethyl)-3-[(2S)-2-[4-[5-(trifluoromethyl)pyrimidin-2-yl]piperazine-1-carbonyl]-3,4-dihydro-2H-quinolin-1-yl]-1H-pyridazin-6-one] | 4.36 | 2110 |
| O=C([C@@H]1CCC[C@H](Nc2cc(C(F)(F)F)c(=O)[nH]n2)C1)N1CCN(c2ncc(C(F)(F)F)cn2)CC1 [Example 60, 5-(trifluoromethyl)-3-[[(1S,3R)-3-[4-[5-(trifluoromethyl)pyrimidin-2-yl]piperazine-1-carbonyl]cyclohexyl]amino]-1H-pyridazin-6-one] | 1.07 | ≥ 10000 |
| O=C(CCC[C@H]1CCc2c1n[nH]c(=O)c2C(F)(F)F)N1CCN(c2ncc(C(F)(F)F)cn2)CC1 [Example 79, (S)-7-(4-oxo-4-(4-(5-(trifluoromethyl)pyrimidin-2-yl)piperazin-1-yl)butyl)-4-(trifluoromethyl)-2,5,6,7-tetrahydro-3H-cyclopenta[c]pyridazin-3-one] | 2.71 | 316 |

Molecules with a lower IC50 (PARP7), results first:

| IC50 (PARP7) [nM] | Compound | EC50 [1] [nM] |
| --- | --- | --- |
| 0.671 | O=C(CC[C@@H]1CCCCN1c1cc(C(F)(F)F)c(=O)[nH]n1)N1CCN(c2ncc(C(F)(F)F)cn2)CC1 [Example 31, (S)-6-(2-(3-oxo-3-(4-(5-(trifluoromethyl)pyrimidin-2-yl)piperazin-1-yl)propyl)piperidin-1-yl)-4-(trifluoromethyl)pyridazin-3(2H)-one] | 172 |
| 0.598 | O=C(CC[C@@H]1COCCN1c1cc(C(F)(F)F)c(=O)[nH]n1)N1CCN(c2ncc(C(F)(F)F)cn2)CC1 [Example 42, (R)-6-(3-(3-oxo-3-(4-(5-(trifluoromethyl)pyrimidin-2-yl)piperazin-1-yl)propyl)morpholino)-4-(trifluoromethyl)pyridazin-3(2H)-one] | 901 |
| 0.357 | O=C(CC[C@@H]1Cc2ccccc2N1c1cc(C(F)(F)F)c(=O)[nH]n1)N1CCN(c2ncc(C(F)(F)F)cn2)CC1 [Example 50, 3-[(2R)-2-[3-oxo-3-[4-[5-(trifluoromethyl)pyrimidin-2-yl]piperazin-1-yl]propyl]indolin-1-yl]-5-(trifluoromethyl)-1H-pyridazin-6-one] | 221 |
| 0.288 | O=C(CCCCc1cc(C(F)(F)F)c(=O)[nH]n1)N1CCN(c2ncc(C(F)(F)F)cn2)CC1 [Example 1, 6-(5-oxo-5-(4-(5-(trifluoromethyl)pyrimidin-2-yl)piperazin-1-yl)pentyl)-4-(trifluoromethyl)pyridazin-3(2H)-one] | 60.6 |
| 0.275 | O=C(CC[C@@H](Nc1cc(C(F)(F)F)c(=O)[nH]n1)C(F)F)N1CCN(c2ncc(C(F)(F)F)cn2)CC1 [Example 40, (R)-6-((1,1-difluoro-5-oxo-5-(4-(5-(trifluoromethyl)pyrimidin-2-yl)piperazin-1-yl)pentan-2-yl)amino)-4-(trifluoromethyl)pyridazin-3(2H)-one] | 63 |
| 0.263 | O=C(CCCNc1cc(C(F)(F)F)c(=O)[nH]n1)N1CCN(c2ncc(C(F)(F)F)cn2)CC1 [Example 15, 6-((4-oxo-4-(4-(5-(trifluoromethyl)pyrimidin-2-yl)piperazin-1-yl)butyl)amino)-4-(trifluoromethyl)pyridazin-3(2H)-one] | 71.9 |
| 0.232 | O=C(CCC1Cc2ccccc2N1c1cc(C(F)(F)F)c(=O)[nH]n1)N1CCN(c2ncc(C(F)(F)F)cn2)CC1 (stereo not shown) [Example 47, 3-[2-[3-oxo-3-[4-[5-(trifluoromethyl)pyrimidin-2-yl]piperazin-1-yl]propyl]indolin-1-yl]-5-(trifluoromethyl)-1H-pyridazin-6-one] | 179 |
| 0.225 | O=C(CCC[C@@H]1CCCc2c1n[nH]c(=O)c2C(F)(F)F)N1CCN(c2ncc(C(F)(F)F)cn2)CC1 (single isomer, unassigned) [Example 76] | 37.8 |
| 0.179 | CCN(CCCC(=O)N1CCN(c2ncc(C(F)(F)F)cn2)CC1)c1cc(C(F)(F)F)c(=O)[nH]n1 [Example 36, 6-(ethyl(4-oxo-4-(4-(5-(trifluoromethyl)pyrimidin-2-yl)piperazin-1-yl)butyl)amino)-4-(trifluoromethyl)pyridazin-3(2H)-one] | 51.6 |
| 0.165 | [2H]C1([2H])N(C(=O)CCCNc2cc(C(F)(F)F)c(=O)[nH]n2)C([2H])([2H])C([2H])([2H])N(c2ncc(C(F)(F)F)cn2)C1([2H])[2H] [Example 51, 3-[[4-[2,2,3,3,5,5,6,6-octadeuterio-4-[5-(trifluoromethyl)pyrimidin-2-yl]piperazin-1-yl]-4-oxo-butyl]amino]-5-(trifluoromethyl)-1H-pyridazin-6-one] | 123 |
